Measured values from PubChem BioAssay AID248 (DTP/NCI, 2004).
“And” between values parts separate entries of the source, which are not always exact repeats. Identical values can stand only once. Inconclusive results and toxic doses are left out. No stated cut-off is given here; in the data, active means T/C of 150% or more; inactive means T/C below 125%. Square brackets hold non-standard residues; d marks the D form. Peptide text beside a SMILES is read from it. * marks the point of attachment. Cbz = O=C(OCc1ccccc1)*; Abu = CC[CH](N)C(=O)O; OBn = c1ccc(CO*)cc1

Tested on: L1210 leukemia ip in BDF1 mice, survival T/C
Experiment: NCI In Vivo Anticancer Drug Screen. Data for tumor model L1210 Leukemia (intraperitoneal) in B6D2F1 (BDF1) mice
Conditions: higher = longer survival
Method in brief: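 Transplanted-tumor mice were given test agent; controls received vehicle only. Survival readings from the two groups were divided (treated over control).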

[1] = endpoint: mean survival time, dose: 100.0 mg/kg/injection, schedule: Q01DX001 (ip), vehicle: saline
[2] = endpoint: mean survival time, dose: 100.0 mg/kg/injection, schedule: Q01DX009 (ip), vehicle: saline
[3] = endpoint: mean survival time, dose: 200.0 mg/kg/injection, schedule: Q01DX001 (ip), vehicle: saline
[4] = endpoint: mean survival time, dose: 200.0 mg/kg/injection, schedule: Q01DX009 (ip), vehicle: saline
[5] = endpoint: mean survival time, dose: 400.0 mg/kg/injection, schedule: Q01DX001 (ip), vehicle: saline
[6] = endpoint: mean survival time, dose: 400.0 mg/kg/injection, schedule: Q01DX009 (ip), vehicle: saline
[7] = endpoint: mean survival time, dose: 100.0 mg/kg/injection, schedule: Q01DX009 (ip), vehicle: saline with Tween-80
[8] = endpoint: mean survival time, dose: 100.0 mg/kg/injection, schedule: Q04DX003 (ip), vehicle: Klucel (hydroxypropylcellulose) (HPC)
[9] = endpoint: mean survival time, dose: 200.0 mg/kg/injection, schedule: Q01DX009 (ip), vehicle: saline with Tween-80
[10] = endpoint: mean survival time, dose: 200.0 mg/kg/injection, schedule: Q04DX003 (ip), vehicle: Klucel (hydroxypropylcellulose) (HPC)
[11] = endpoint: mean survival time, dose: 400.0 mg/kg/injection, schedule: Q01DX009 (ip), vehicle: saline with Tween-80
[12] = endpoint: mean survival time, dose: 400.0 mg/kg/injection, schedule: Q04DX003 (ip), vehicle: Klucel (hydroxypropylcellulose) (HPC)
[13] = endpoint: mean survival time, dose: 100.0 mg/kg/injection, schedule: Q04DX002 (ip), vehicle: Klucel (hydroxypropylcellulose) (HPC)
[14] = endpoint: mean survival time, dose: 200.0 mg/kg/injection, schedule: Q04DX002 (ip), vehicle: Klucel (hydroxypropylcellulose) (HPC)
[15] = endpoint: mean survival time, dose: 100.0 mg/kg/injection, schedule: Q01DX009 (ip), vehicle: Klucel (hydroxypropylcellulose) (HPC)
[16] = endpoint: mean survival time, dose: 200.0 mg/kg/injection, schedule: Q01DX009 (ip), vehicle: Klucel (hydroxypropylcellulose) (HPC)
[17] = endpoint: mean survival time, dose: 400.0 mg/kg/injection, schedule: Q01DX009 (ip), vehicle: Klucel (hydroxypropylcellulose) (HPC)

Measured: T/C

Nc1ncnn1C(=O)OCc1ccccc1
inactive: [1] 98 % of control | [2] 89 % of control | [3] 112 % of control | [4] 96 % of control | [5] 93 % of control | [6] 100 % of control

COC1(OC)C2(Cl)CC(c3ccc(Cl)cc3)C1(Cl)C(Cl)=C2Cl (stereo not drawn)
inactive: [7] 110 % of control | [8] 98 % of control | [9] 101 % of control | [10] 105 % of control | [11] 100 % of control | [12] 104 % of control

Nc1cccc2c1-c1ccccc1C2=O
inactive: endpoint: mean survival time, dose: 50.0 mg/kg/injection, schedule: Q04DX002 (ip), vehicle: Klucel (hydroxypropylcellulose) (HPC) 103 % of control | [13] 88 % of control | [14] 103 % of control

Oc1ccc(-c2ccccc2)cc1CNC12CC3CC(CC(C3)C1)C2
inactive: [15] 100 % of control | [8] 90 % of control | [16] 88 % of control | [10] 100 % of control | [17] 93 % of control | [12] 94 % of control

COc1cc(OC)c(OC)cc1/C=C/c1ccc2ccccc2n1
inactive: [7] 91 % of control | [9] 100 % of control | [11] 98 % of control

CC(=O)NC(CS)C(=O)O (stereo not drawn)
inactive: [1] 96 % of control | [3] 95 % of control | [5] 98 % of control | endpoint: median survival time, dose: 250.0 mg/kg/injection, schedule: Q01DX001 (ip), vehicle: saline 100 % of control | endpoint: median survival time, dose: 500.0 mg/kg/injection, schedule: Q01DX001 (ip), vehicle: none 101 % of control | endpoint: median survival time, dose: 750.0 mg/kg/injection, schedule: Q01DX001 (ip), vehicle: none 99 % of control | endpoint: median survival time, dose: 750.0 mg/kg/injection, schedule: Q01DX001 (ip), vehicle: saline 100 % of control | endpoint: median survival time, dose: 1000.0 mg/kg/injection, schedule: Q01DX001 (ip), vehicle: none 97 % of control and 106 % of control | endpoint: median survival time, dose: 1000.0 mg/kg/injection, schedule: Q01DX009 (ip), vehicle: saline 93 % of control | endpoint: median survival time, dose: 1000.0 mg/kg/injection, schedule: Q01DX014 (ip), vehicle: saline 100 % of control and 102 % of control | endpoint: median survival time, dose: 1000.0 mg/kg/injection, schedule: Q07DX003 (ip), vehicle: saline 94 % of control | endpoint: median survival time, dose: 1500.0 mg/kg/injection, schedule: Q01DX001 (ip), vehicle: none 113 % of control | endpoint: median survival time, dose: 1500.0 mg/kg/injection, schedule: Q01DX009 (ip), vehicle: saline 96 % of control | endpoint: median survival time, dose: 1500.0 mg/kg/injection, schedule: Q01DX014 (ip), vehicle: saline 102 % of control and 105 % of control | endpoint: median survival time, dose: 1500.0 mg/kg/injection, schedule: Q07DX003 (ip), vehicle: saline 94 % of control | endpoint: median survival time, dose: 2000.0 mg/kg/injection, schedule: Q01DX001 (ip), vehicle: saline 100 % of control

CC#CC1(O)CCC2C3CC(C)C4CC(=O)CCC4(C)C3CCC21C (stereo not drawn)
inactive: endpoint: mean survival time, dose: 146.0 mg/kg/injection, schedule: Q01DX Z (sc), vehicle: steriod suspending solution 108 % of control | endpoint: mean survival time, dose: 222.0 mg/kg/injection, schedule: Q01DX Z (sc), vehicle: steriod suspending solution 112 % of control | endpoint: mean survival time, dose: 333.0 mg/kg/injection, schedule: Q01DX Z (sc), vehicle: steriod suspending solution 112 % of control | endpoint: mean survival time, dose: 500.0 mg/kg/injection, schedule: Q01DX Z (sc), vehicle: steriod suspending solution 106 % of control

CC(C)(C)C1=CC(C(C)(C)C)CCC1=O (stereo not drawn)
inactive: endpoint: mean survival time, dose: 100.0 mg/kg/injection, schedule: Q04DX003 (ip), vehicle: acetone 98 % of control | endpoint: mean survival time, dose: 200.0 mg/kg/injection, schedule: Q04DX003 (ip), vehicle: acetone 102 % of control | endpoint: mean survival time, dose: 400.0 mg/kg/injection, schedule: Q04DX003 (ip), vehicle: acetone 92 % of control

CCC(NC(=O)OCc1ccccc1)C(=O)NC(Cc1ccc(O)cc1)C(=O)OCc1ccccc1 (stereo not drawn) (Cbz-[Abu]-Tyr-OBn; configuration not given here)
inactive: [15] 102 % of control | [16] 91 % of control | [17] 99 % of control

O=C(Nc1ccc(C2=NCCN2)cc1)c1cccc(C(=O)Nc2ccc(C3=NCCN3)cc2)n1
inactive: endpoint: mean survival time, dose: 15.0 mg/kg/injection, schedule: Q01DX Z (ip), vehicle: methylcellulose (MC) 96 % of control | endpoint: mean survival time, dose: 30.0 mg/kg/injection, schedule: Q01DX Z (ip), vehicle: methylcellulose (MC) 93 % of control | endpoint: mean survival time, dose: 60.0 mg/kg/injection, schedule: Q01DX Z (ip), vehicle: methylcellulose (MC) 104 % of control and 111 % of control | endpoint: mean survival time, dose: 240.0 mg/kg/injection, schedule: Q01DX Z (ip), vehicle: methylcellulose (MC) 120 % of control | endpoint: mean survival time, dose: 480.0 mg/kg/injection, schedule: Q01DX Z (ip), vehicle: methylcellulose (MC) 95 % of control

CC12CCC(O)CC1CCC1C2CCC2(C)C(C(=O)O)CCC12 (stereo not drawn)
inactive: endpoint: mean survival time, dose: 100.0 mg/kg/injection, schedule: Q04DX002 (ip), vehicle: gum acacia 99 % of control | endpoint: mean survival time, dose: 200.0 mg/kg/injection, schedule: Q04DX002 (ip), vehicle: gum acacia 86 % of control | endpoint: mean survival time, dose: 400.0 mg/kg/injection, schedule: Q04DX002 (ip), vehicle: gum acacia 89 % of control

CC(C)(C)Sc1cc(C#N)ccn1
inactive: endpoint: mean survival time, dose: 50.0 mg/kg/injection, schedule: Q04DX003 (ip), vehicle: other 100 % of control and 92 % of control | endpoint: mean survival time, dose: 100.0 mg/kg/injection, schedule: Q04DX002 (ip), vehicle: other 103 % of control and 109 % of control | endpoint: mean survival time, dose: 200.0 mg/kg/injection, schedule: Q04DX002 (ip), vehicle: other 98 % of control and 102 % of control | endpoint: mean survival time, dose: 400.0 mg/kg/injection, schedule: Q04DX002 (ip), vehicle: other 103 % of control and 106 % of control

O=C(c1ccccc1)C1CCC(Cl)CC1 (stereo not drawn)
inactive: endpoint: mean survival time, dose: 100.0 mg/kg/injection, schedule: Q01DX001 (ip), vehicle: other 96 % of control | endpoint: mean survival time, dose: 200.0 mg/kg/injection, schedule: Q01DX001 (ip), vehicle: other 101 % of control | endpoint: mean survival time, dose: 400.0 mg/kg/injection, schedule: Q01DX001 (ip), vehicle: other 102 % of control

CN1CCCCC1(Cc1ccccc1)Cc1ccccc1
inactive: endpoint: mean survival time, dose: 50.0 mg/kg/injection, schedule: Q01DX009 (ip), vehicle: saline 102 % of control | [2] 90 % of control | endpoint: mean survival time, dose: 100.0 mg/kg/injection, schedule: Q04DX003 (ip), vehicle: saline 106 % of control | endpoint: mean survival time, dose: 200.0 mg/kg/injection, schedule: Q04DX003 (ip), vehicle: saline 95 % of control

COc1ccc(OC)c2c1C(=O)c1ccccc1C2=O
inactive: endpoint: mean survival time, dose: 25.0 mg/kg/injection, schedule: Q01DX009 (ip), vehicle: saline with Tween-80 107 % of control | endpoint: mean survival time, dose: 50.0 mg/kg/injection, schedule: Q01DX001 (ip), vehicle: carboxymethylcellulose (CMC) 102 % of control | endpoint: mean survival time, dose: 50.0 mg/kg/injection, schedule: Q01DX009 (ip), vehicle: saline with Tween-80 104 % of control | endpoint: mean survival time, dose: 100.0 mg/kg/injection, schedule: Q01DX001 (ip), vehicle: carboxymethylcellulose (CMC) 108 % of control | [7] 104 % of control | endpoint: mean survival time, dose: 200.0 mg/kg/injection, schedule: Q01DX001 (ip), vehicle: carboxymethylcellulose (CMC) 102 % of control | [9] 107 % of control | endpoint: mean survival time, dose: 400.0 mg/kg/injection, schedule: Q01DX001 (ip), vehicle: carboxymethylcellulose (CMC) 113 % of control | [11] 111 % of control

O=[N+]([O-])c1cc(S(=O)(=O)C(F)F)ccc1Cl
inactive: endpoint: mean survival time, dose: 25.0 mg/kg/injection, schedule: Q04DX003 (ip), vehicle: gum acacia 97 % of control | endpoint: mean survival time, dose: 50.0 mg/kg/injection, schedule: Q01DX009 (ip), vehicle: gum acacia 93 % of control | endpoint: mean survival time, dose: 50.0 mg/kg/injection, schedule: Q04DX003 (ip), vehicle: gum acacia 97 % of control | endpoint: mean survival time, dose: 100.0 mg/kg/injection, schedule: Q01DX009 (ip), vehicle: gum acacia 88 % of control | endpoint: mean survival time, dose: 100.0 mg/kg/injection, schedule: Q04DX003 (ip), vehicle: gum acacia 99 % of control and 102 % of control

C[N+]1(C)CCOC(O)(c2ccccc2)C1 (stereo not drawn)
inactive: endpoint: mean survival time, dose: 25.0 mg/kg/injection, schedule: Q01DX001 (ip), vehicle: saline 88 % of control | endpoint: mean survival time, dose: 50.0 mg/kg/injection, schedule: Q01DX001 (ip), vehicle: saline 98 % of control | [1] 95 % of control and 101 % of control

COc1cc(CCN)ccc1O
inactive: [2] 87 % of control | [4] 90 % of control | [6] 95 % of control

COc1cc2c3c(c1)C(=O)CCN3CCC2
inactive: [8] 93 % of control | [10] 93 % of control

CCC1(CC)C(=O)NC(=O)N(C)C1=O
inactive: [13] 112 % of control | [14] 88 % of control
